Test results as given in ChEMBL document CHEMBL3885881, “DrugMatrix”.

Organism: Rattus norvegicus
Assay: DrugMatrix - Regimen: Daily Repeat
Assay type: toxicity, organism-based, Sprague-Dawley
Parameters: regimen Daily Repeat, gender Male, age 6-8 weeks
Settings: in vivo, po, route oral GAVAGE, vehicle .5 % CMC; for BASOPHIL / EOSINOPHIL / ERYTHROCYTE COUNT / HEMATOCRIT / HEMOGLOBIN / LEUKOCYTE COUNT / LYMPHOCYTE / MEAN CORPUSCULAR HEMOGLOBIN / MEAN CORPUSCULAR HEMOGLOBIN CONCENTRATION / MEAN CORPUSCULAR VOLUME / MONOCYTE / NEUTROPHIL / PLATELET COUNT: tissue Blood; for ALANINE AMINOTRANSFERASE / ALBUMIN / ALKALINE PHOSPHATASE / ASPARTATE AMINOTRANSFERASE / BLOOD UREA NITROGEN / CHLORIDE / CHOLESTEROL / CREATINE PHOSPHOKINASE / CREATININE / GLUCOSE / PHOSPHORUS / POTASSIUM / SODIUM / TOTAL BILIRUBIN / TOTAL PROTEIN: tissue Plasma
[1] = 0 mg/kg, 72 h, dose level Control, time 3 day
[2] = 0 mg/kg, 120 h, dose level Control, time 5 day
[3] = 150 mg/kg, 72 h, dose level Low, time 3 day
[4] = 150 mg/kg, 120 h, dose level Low, time 5 day
[5] = 1500 mg/kg, 72 h, dose level High, time 3 day
[6] = 1500 mg/kg, 120 h, dose level High, time 5 day

## C#C[C@]1(O)CC[C@H]2[C@@H]3CCC4=CC(=O)CC[C@]4(C)[C@H]3CC[C@@]21C [ETHISTERONE]
[1]
  BASOPHIL: 0.68%
  EOSINOPHIL: 0.46%
  ERYTHROCYTE COUNT: 7.15 x10E6/uL
  HEMATOCRIT: 45.44%
  HEMOGLOBIN: 14.1 G/DL
  LEUKOCYTE COUNT: 9.78 x10E3/uL
  LYMPHOCYTE: 84.44%
  MEAN CORPUSCULAR HEMOGLOBIN: 19.72 pg
  MEAN CORPUSCULAR HEMOGLOBIN CONCENTRATION: 31 G/DL
  MEAN CORPUSCULAR VOLUME: 63.66 fL
  MONOCYTE: 2.14%
  NEUTROPHIL: 11.16%
  PLATELET COUNT: 1378.2 x10E3/uL
  ALANINE AMINOTRANSFERASE: 42.33 u/L
  ALBUMIN: 3.8 G/DL
  ALKALINE PHOSPHATASE: 388.17 u/L
  ASPARTATE AMINOTRANSFERASE: 68 u/L
  BLOOD UREA NITROGEN: 16.17 mg/dL
  CHLORIDE: 96.67 MEQ/L
  CHOLESTEROL: 71 mg/dL
  CREATINE PHOSPHOKINASE: 156.17 u/L
  CREATININE: 0.57 mg/dL
  GLUCOSE: 193.67 mg/dL
  PHOSPHORUS: 11.43 mg/dL
  POTASSIUM: 7 MEQ/L
  SODIUM: 140.33 MEQ/L
  TOTAL BILIRUBIN: 0.48 mg/dL
  TOTAL PROTEIN: 6.8 G/DL
[2]
  BASOPHIL: 1.47%
  EOSINOPHIL: 1%
  ERYTHROCYTE COUNT: 7.12 x10E6/uL
  HEMATOCRIT: 45.47%
  HEMOGLOBIN: 14.1 G/DL
  LEUKOCYTE COUNT: 11.38 x10E3/uL
  LYMPHOCYTE: 82.57%
  MEAN CORPUSCULAR HEMOGLOBIN: 19.82 pg
  MEAN CORPUSCULAR HEMOGLOBIN CONCENTRATION: 31.02 G/DL
  MEAN CORPUSCULAR VOLUME: 63.88 fL
  MONOCYTE: 2.2%
  NEUTROPHIL: 11.97%
  PLATELET COUNT: 1267 x10E3/uL
  ALANINE AMINOTRANSFERASE: 38 u/L
  ALBUMIN: 3.72 G/DL
  ALKALINE PHOSPHATASE: 391 u/L
  ASPARTATE AMINOTRANSFERASE: 65.83 u/L
  BLOOD UREA NITROGEN: 14.17 mg/dL
  CHLORIDE: 107.67 MEQ/L
  CHOLESTEROL: 61 mg/dL
  CREATINE PHOSPHOKINASE: 148.33 u/L
  CREATININE: 0.57 mg/dL
  GLUCOSE: 177.17 mg/dL
  PHOSPHORUS: 12.07 mg/dL
  POTASSIUM: 7.2 MEQ/L
  SODIUM: 151.5 MEQ/L
  TOTAL BILIRUBIN: 0.58 mg/dL
  TOTAL PROTEIN: 6.72 G/DL
[3]
  BASOPHIL: 0.73%
  EOSINOPHIL: 0.33%
  ERYTHROCYTE COUNT: 6.6 x10E6/uL
  HEMATOCRIT: 41.67%
  HEMOGLOBIN: 13.17 G/DL
  LEUKOCYTE COUNT: 10.76 x10E3/uL
  LYMPHOCYTE: 79.57%
  MEAN CORPUSCULAR HEMOGLOBIN: 19.9 pg
  MEAN CORPUSCULAR HEMOGLOBIN CONCENTRATION: 31.57 G/DL
  MEAN CORPUSCULAR VOLUME: 63.13 fL
  MONOCYTE: 3.47%
  NEUTROPHIL: 14.4%
  PLATELET COUNT: 1218.67 x10E3/uL
  ALANINE AMINOTRANSFERASE: 35.67 u/L
  ALBUMIN: 3.57 G/DL
  ALKALINE PHOSPHATASE: 319.33 u/L
  ASPARTATE AMINOTRANSFERASE: 62.67 u/L
  BLOOD UREA NITROGEN: 13.33 mg/dL
  CHLORIDE: 95.33 MEQ/L
  CHOLESTEROL: 60 mg/dL
  CREATINE PHOSPHOKINASE: 132 u/L
  CREATININE: 0.5 mg/dL
  GLUCOSE: 185.33 mg/dL
  PHOSPHORUS: 12.3 mg/dL
  POTASSIUM: 6.3 MEQ/L
  SODIUM: 138.33 MEQ/L
  TOTAL BILIRUBIN: 0.4 mg/dL
  TOTAL PROTEIN: 6.37 G/DL
[4]
  BASOPHIL: 0.93%
  EOSINOPHIL: 0.27%
  ERYTHROCYTE COUNT: 7.3 x10E6/uL
  HEMATOCRIT: 45.67%
  HEMOGLOBIN: 14.1 G/DL
  LEUKOCYTE COUNT: 8.86 x10E3/uL
  LYMPHOCYTE: 86.5%
  MEAN CORPUSCULAR HEMOGLOBIN: 19.3 pg
  MEAN CORPUSCULAR HEMOGLOBIN CONCENTRATION: 30.87 G/DL
  MEAN CORPUSCULAR VOLUME: 62.6 fL
  MONOCYTE: 2.7%
  NEUTROPHIL: 8.87%
  PLATELET COUNT: 1265.33 x10E3/uL
  ALANINE AMINOTRANSFERASE: 35.67 u/L
  ALBUMIN: 3.6 G/DL
  ALKALINE PHOSPHATASE: 382.67 u/L
  ASPARTATE AMINOTRANSFERASE: 57.67 u/L
  BLOOD UREA NITROGEN: 14.33 mg/dL
  CHLORIDE: 105.67 MEQ/L
  CHOLESTEROL: 39.67 mg/dL
  CREATINE PHOSPHOKINASE: 113.33 u/L
  CREATININE: 0.57 mg/dL
  GLUCOSE: 167 mg/dL
  PHOSPHORUS: 11.77 mg/dL
  POTASSIUM: 7.4 MEQ/L
  SODIUM: 151 MEQ/L
  TOTAL BILIRUBIN: 0.4 mg/dL
  TOTAL PROTEIN: 6.53 G/DL
[5]
  BASOPHIL: 0.3%
  EOSINOPHIL: 0.23%
  ERYTHROCYTE COUNT: 7.32 x10E6/uL
  HEMATOCRIT: 46.8%
  HEMOGLOBIN: 15 G/DL
  LEUKOCYTE COUNT: 13.73 x10E3/uL
  LYMPHOCYTE: 85.93%
  MEAN CORPUSCULAR HEMOGLOBIN: 20.53 pg
  MEAN CORPUSCULAR HEMOGLOBIN CONCENTRATION: 32.13 G/DL
  MEAN CORPUSCULAR VOLUME: 63.97 fL
  MONOCYTE: 2.43%
  NEUTROPHIL: 9.77%
  PLATELET COUNT: 1394 x10E3/uL
  ALANINE AMINOTRANSFERASE: 25.33 u/L
  ALBUMIN: 3.93 G/DL
  ALKALINE PHOSPHATASE: 316.67 u/L
  ASPARTATE AMINOTRANSFERASE: 60.33 u/L
  BLOOD UREA NITROGEN: 13.67 mg/dL
  CHLORIDE: 96 MEQ/L
  CHOLESTEROL: 34 mg/dL
  CREATINE PHOSPHOKINASE: 152 u/L
  CREATININE: 0.43 mg/dL
  GLUCOSE: 166.67 mg/dL
  PHOSPHORUS: 12.2 mg/dL
  POTASSIUM: 6.83 MEQ/L
  SODIUM: 142 MEQ/L
  TOTAL BILIRUBIN: 0.3 mg/dL
  TOTAL PROTEIN: 7.17 G/DL
[6]
  BASOPHIL: 0.93%
  EOSINOPHIL: 0.27%
  ERYTHROCYTE COUNT: 7.53 x10E6/uL
  HEMATOCRIT: 48.07%
  HEMOGLOBIN: 14.97 G/DL
  LEUKOCYTE COUNT: 7.76 x10E3/uL
  LYMPHOCYTE: 80.6%
  MEAN CORPUSCULAR HEMOGLOBIN: 19.97 pg
  MEAN CORPUSCULAR HEMOGLOBIN CONCENTRATION: 31.2 G/DL
  MEAN CORPUSCULAR VOLUME: 63.93 fL
  MONOCYTE: 3.3%
  NEUTROPHIL: 13.73%
  PLATELET COUNT: 1362.33 x10E3/uL
  ALANINE AMINOTRANSFERASE: 31.67 u/L
  ALBUMIN: 3.73 G/DL
  ALKALINE PHOSPHATASE: 496 u/L
  ASPARTATE AMINOTRANSFERASE: 57.33 u/L
  BLOOD UREA NITROGEN: 11 mg/dL
  CHLORIDE: 105.67 MEQ/L
  CHOLESTEROL: 35.33 mg/dL
  CREATINE PHOSPHOKINASE: 132.67 u/L
  CREATININE: 0.57 mg/dL
  GLUCOSE: 185.67 mg/dL
  PHOSPHORUS: 13.8 mg/dL
  POTASSIUM: 7.47 MEQ/L
  SODIUM: 151.33 MEQ/L
  TOTAL BILIRUBIN: 0.33 mg/dL
  TOTAL PROTEIN: 6.83 G/DL
